According to patent US20230210845A1, “DOSING METHODS FOR TREATMENT OF CARDIOVASCULAR CONDITIONS” (IMBRIA PHARMACEUTICALS, INC., priority 2020, published 2023):
Read-outs that look alike come from different tables or passages of the source. Blank lines part the entries; values can stand above or below the molecule they belong to.

Legend:
[1] = MAD part: safety and tolerability (TEAEs); format: in vivo, human (healthy subjects)
[2] = 28-day dog toxicology study (NOAEL and exposure); format: in vivo; conditions: for AUC0-8×2: Day 26, IMB-1018972 200 mg/kg/day
Procedure: Based on the nonclinical toxicology data, it was considered that subjects in this clinical study were not at unreasonable risk of adverse effects. […] For a 60-kg individual, the NOAEL dose would be 6480 mg. With a 10-fold safety factor applied, this would allow for a maximum recommended starting dose (MRSD) of 648 mg/day.7,8 The planned starting dose in the current Phase 1 study was 50 mg, equivalent to 0.83 mg/kg/day for a 60-kg subject. This starting dose is less than 10% of the MRSD determined from the dog NOAEL and less than 1% of the dog NOAEL.
The relevant animal study was the 28-day dog study where the NOAEL for IMB-1018972 was 200 mg/kg/day.

[3] = FIH study overall safety (deaths, clinical laboratory, vital signs, ECG, telemetry, physical examination)
[4] = FIH study: plasma PK, single and multiple dose results combined; format: in vivo, human (healthy subjects); conditions: all blood samples of subjects that received IMB-1018972
[5] = SAD part (and integrated FE arm): safety and tolerability (TEAEs)
clinical [6] = experiment: clinical
Procedure: Subjects with R2 below 0.80 or %AUCextra>20% were not excluded from the dose-proportionality evaluation based on AUC0-inf. A point estimate and 95% CI were produced for the slope. […] Since there were only 2 dose levels in the MAD part, no dose-proportionality analysis was performed for the MAD part.

[7] = SAD part: PK in urine (urinary excretion, renal clearance); format: in vivo, human (healthy subjects); conditions: for CL renal: human, urine, read-out: geometric mean renal clearance (CLR) (converted)
clinical [8] = format: in vivo, human (healthy subjects); conditions: plasma; for Tmax: human, oral, 150 mg, read-out: median tmax
clinical [9] = experiment: clinical; design: species or system human (healthy subjects); conditions: human, in vivo, po, 35 mg
[10] = Procedure: Subjects received multiple oral doses of an IR formulation of IMB-1018972 or placebo once every 12 hours (q12h) for 14 consecutive days.
The doses were selected based upon the safety, tolerability, and PK data from the SAD part: • Group B1 multiple oral doses of an IR formulation of 150 mg IMB-1018972 (n=9) or matching placebo (n=3) twice daily (q12h) for 14 days; on Day 14 only a single morning dose was administered • Group B2: multiple oral doses of an IR formulation of 50 mg IMB-1018972 (n=9) or matching placebo (n=3) q12h for 14 days; on Day 14 only a single morning dose was administered
Before each morning dose, subjects fasted overnight for at least 10 hours following a snack on the evening before. On Days 1 and 14, subjects received a standardized breakfast that had to be consumed within 20 minutes. Dosing occurred at 30 minutes after the start of breakfast. Following dosing, subjects fasted for 4 hours until lunch. During fasting, fluids other than water were not allowed. On Days 2 to 13, breakfast was not standardized and was given within maximally 1 hour before dosing and consumed before dosing. No fasting after dosing was applicable on these days.

[11] = 150 mg IMB-1018972, fasted (FE group)
[12] = 150 mg IMB-1018972, fed (FDA high-fat breakfast)
[13] = single oral dose 35 mg trimetazidine, all 4 TEAEs

Structure (SMILES): COc1ccc(CN2CCN(CCOC(=O)c3cccnc3)CC2)c(OC)c1OC [IMB-1018972]
TEAEs of flushing ([1]; 50 mg q12h fed): No TEAEs of flushing were reported
number of TEAEs of flushing (incidental and mild) ([1]; 150 mg q12h fed): 7
subjects with TEAEs of flushing ([1]; 150 mg q12h fed (n=9)): 6
subjects reporting drug-related TEAEs ([1]; MAD part (6 of 18)): 33.3%
subjects reporting TEAEs not related to the study drug ([1]; MAD part (11 of 18)): 61.1%
severity of TEAEs ([1]; MAD part, all TEAEs): mild severity
total number of TEAEs ([1]; all IMB-1018972 subjects of MAD part): 35
maximum recommended starting dose (MRSD) ([2]; both, dog, in vivo, 28 days): 648 mg/day
clinical laboratory, vital signs, 12-lead ECG, telemetry, physical examination ([3]; single and multiple oral doses, IR formulation): no findings of clinical relevance
deaths ([3]; whole study): no deaths reported
measurability of parent compound in plasma [4]: could be measured in only few plasma samples
effect of dosing under fed conditions on TEAEs ([5]; FE arm of SAD part, 150 mg): appeared to attenuate the number and incidence of TEAEs
TEAEs of flushing of mild severity ([5]; SAD part): 1
TEAEs of flushing of moderate severity ([5]; SAD part): 5
number of TEAEs of flushing (most common AEs) ([5]; SAD part): 6
severe TEAEs ([5]; SAD part): No severe TEAEs were reported
subjects reporting drug-related TEAEs of flushing ([5]; SAD part (6 subjects)): 25%
subjects reporting drug-related TEAEs ([5]; SAD part (7 of 24)): 29.2%
serious adverse event leading to withdrawal ([5]; Subject 131, 150 mg fasted, FE arm Group A4, moderate, unlikely related): influenza like illness
total number of TEAEs ([5]; all IMB-1018972 subjects of SAD part): 45
drug-related TEAEs ([5]; following 50 mg and 150 mg (fasted only group)): No drug-related TEAEs were reported
subjects who reported flushing ([5]; single dose 150 mg fasted, FE arm (n=6)): 2

Tmax (clinical [6]; human, in vivo): 1.5 to 2 h
time postdose at which detectable concentrations generally seen (clinical [6]; human, in vivo): 15 to 30 min
Tmax (clinical [6]; human, in vivo, po, 50 mg): 1 to 2 h
half-life (clinical [6]; human, plasma, oral): 406 to 480 min
CL renal ([7]; oral, range over single doses 50 mg to 400 mg IMB-1018972): 302 to 347 mL/min
CL renal ([7]; po, 35 mg): 340 mL/min
arithmetic mean percent of the dose excreted in urine ([7]; within 48 hours after single oral dose of 35 mg trimetazidine): 54.47%
Tmax (clinical [8]; [11]): 1.5 h
Tmax (clinical [8]; [12]): 4 h
AUC(0-inf) (clinical [9]): 929 ng·h/mL
AUC(0-t) (clinical [9]): 912 ng·h/mL
Cmax (clinical [9]): 68.6 ng/mL
half-life (clinical [9]): 449 min
Structure (SMILES): COc1ccc(CN2CCNCC2)c(OC)c1OC [trimetazidine]
total number of TEAEs ([5]; single oral dose 35 mg trimetazidine): 4
relationship of TEAEs to study drug [5, 13]: not to be related to the study drug
severity of TEAEs [5, 13]: mild severity

Structure (SMILES): COc1ccc(CN2CCN(CCO)CC2)c(OC)c1OC [IMB-1028814]
dose proportionality for Cmax, AUC0-t, AUC0-inf (95% CIs of slopes included 1) (clinical [6]; IMB-1018972 single-dose range 50 to 400 mg, fasted): no evidence of a deviation from dose proportionality
median tmax (clinical [6]; plasma, single-dose range 50 mg to 400 mg IMB-1018972 IR, fasted): around 1 hours
state of concentrations at Day 14 dose (trough concentrations, visual inspection) ([10]; 150 mg fed and 50 mg fed q12h): steady-state conditions
geometric mean Cmax higher on Day 1 in MAD part than after single dose in SAD part ([10]; 150 mg fed in both parts): 97%
geometric mean t1/2 ([10]; Day 14 after 50 mg q12h fed): 2.79 h
geometric mean t1/2 ([10]; Day 14 after 150 mg q12h fed): 4.48 h
AUC0-8×2 ([2]; female dogs): 652,849 ng.h/mL
AUC0-8×2 ([2]; male dogs): 417,733 ng.h/mL
median tmax (clinical [8]; [11]): 1 h
median tmax (clinical [8]; [12]): 2 h
